Test results as given in ChEMBL document CHEMBL1139215, “Discovery of aminofurazan-azabenzimidazoles as inhibitors of Rho-kinase with high kinase selectivity and antihypertensive activity” (J Med Chem, 2007).
Calls of active or inactive are those of the source. No cut-off for these calls is given here.

Legend:
Homo sapiens [1] = species on record: Homo sapiens; test: Selectivity for ROCK1 over CDK2
Homo sapiens [2] = species on record: Homo sapiens; test: Selectivity for ROCK1 over GSK3-beta
Homo sapiens [3] = species on record: Homo sapiens; test: Selectivity for ROCK1 over p70S6K
Homo sapiens [4] = species on record: Homo sapiens; test: Selectivity for ROCK1 over RSK1
Homo sapiens [5] = species on record: Homo sapiens; test: Selectivity for ROCK1 over MSK1
[6] = molecular target: Rho-associated protein kinase 1 (Homo sapiens, UniProt Q13464); test: Inhibition of human ROCK1 in Sf9 cells; assay type: cell-based
[7] = Oral bioavailability in Sprague-Dawley rat at 2 mg/kg, po; assay type: ADME, organism-based; conditions: in vivo
Aorta = test: Relaxation of phenylephrine contracted Sprague-Dawley rat aortic rings; assay type: functional, tissue-based
[8] = Clearance in Sprague-Dawley rat at 0.85 mg/kg, iv; assay type: ADME, organism-based; design: dose 0.85 mg/kg, route intravenous; conditions: in vivo
[9] = Cmax in Sprague-Dawley rat at 2 mg/kg, po; assay type: ADME, organism-based; design: dose 2 mg/kg, route oral; conditions: in vivo
[10] = Cmax in Sprague-Dawley rat at 0.85 mg/kg, iv; assay type: ADME, organism-based; design: dose 0.85 mg/kg, route intravenous; conditions: in vivo
[11] = Half life in Sprague-Dawley rat at 0.85 mg/kg, iv; assay type: ADME, organism-based; design: dose 0.85 mg/kg, route intravenous; conditions: in vivo
[12] = Volume of distribution in Sprague-Dawley rat at 0.85 mg/kg; assay type: ADME, organism-based; design: dose 0.85 mg/kg; conditions: in vivo, read-out: Vdss
[13] = Volume of distribution in Sprague-Dawley rat at 1 mg/kg, iv; assay type: ADME, organism-based; design: dose 1 mg/kg, route intravenous; conditions: in vivo, read-out: Vdss
[14] = Cmax in Sprague-Dawley rat at 2.2 mg/kg, po; assay type: ADME, organism-based; design: dose 2.2 mg/kg, route oral; conditions: in vivo
[15] = Oral bioavailability in Sprague-Dawley rat at 2.2 mg/kg, po; assay type: ADME, organism-based; conditions: in vivo
[16] = Clearance in Sprague-Dawley rat at 1 mg/kg, iv; assay type: ADME, organism-based; design: dose 1 mg/kg, route intravenous; conditions: in vivo
[17] = Cmax in Sprague-Dawley rat at 1 mg/kg, iv; assay type: ADME, organism-based; design: dose 1 mg/kg, route intravenous; conditions: in vivo
[18] = Half life in Sprague-Dawley rat at 1 mg/kg, iv; assay type: ADME, organism-based; design: dose 1 mg/kg, route intravenous; conditions: in vivo
[19] = Volume of distribution in Sprague-Dawley rat at 2.4 mg/kg, iv; assay type: ADME, organism-based; design: dose 2.4 mg/kg, route intravenous; conditions: in vivo, read-out: Vdss
[20] = Cmax in Sprague-Dawley rat at 3.3 mg/kg, po; assay type: ADME, organism-based; design: dose 3.3 mg/kg, route oral; conditions: in vivo
[21] = Oral bioavailability in Sprague-Dawley rat at 3.3 mg/kg, po; assay type: ADME, organism-based; conditions: in vivo
[22] = Cmax in Sprague-Dawley rat at 2.4 mg/kg, iv; assay type: ADME, organism-based; design: dose 2.4 mg/kg, route intravenous; conditions: in vivo
[23] = Clearance in Sprague-Dawley rat at 2.4 mg/kg, iv; assay type: ADME, organism-based; design: dose 2.4 mg/kg, route intravenous; conditions: in vivo
[24] = Half life in Sprague-Dawley rat at 2.4 mg/kg, iv; assay type: ADME, organism-based; design: dose 2.4 mg/kg, route intravenous; conditions: in vivo
[25] = Clearance in Sprague-Dawley rat at 1.2 mg/kg, iv; assay type: ADME, organism-based; design: dose 1.2 mg/kg, route intravenous; conditions: in vivo
[26] = Cmax in Sprague-Dawley rat at 1.2 mg/kg, iv; assay type: ADME, organism-based; design: dose 1.2 mg/kg, route intravenous; conditions: in vivo
[27] = Half life in Sprague-Dawley rat at 1.2 mg/kg, iv; assay type: ADME, organism-based; design: dose 1.2 mg/kg, route intravenous; conditions: in vivo
[28] = Cmax in Sprague-Dawley rat at 3.7 mg/kg, po; assay type: ADME, organism-based; design: dose 3.7 mg/kg, route oral; conditions: in vivo
[29] = Volume of distribution in Sprague-Dawley rat at 1.2 mg/kg, iv; assay type: ADME, organism-based; design: dose 1.2 mg/kg, route intravenous; conditions: in vivo, read-out: Vdss
[30] = Oral bioavailability in Sprague-Dawley rat at 3.7 mg/kg, po; assay type: ADME, organism-based; conditions: in vivo
[31] = Cmax in Sprague-Dawley rat at 2.1 mg/kg, iv; assay type: ADME, organism-based; design: dose 2.1 mg/kg, route intravenous; conditions: in vivo
[32] = Clearance in Sprague-Dawley rat at 2.1 mg/kg, iv; assay type: ADME, organism-based; design: dose 2.1 mg/kg, route intravenous; conditions: in vivo
[33] = Cmax in Sprague-Dawley rat at 2.1 mg/kg, po; assay type: ADME, organism-based; design: dose 2.1 mg/kg, route oral; conditions: in vivo
[34] = Half life in Sprague-Dawley rat at 2.1 mg/kg, iv; assay type: ADME, organism-based; design: dose 2.1 mg/kg, route intravenous; conditions: in vivo
[35] = Oral bioavailability in Sprague-Dawley rat at 2.1 mg/kg, po; assay type: ADME, organism-based; conditions: in vivo
[36] = Volume of distribution in Sprague-Dawley rat at 2.1 mg/kg, iv; assay type: ADME, organism-based; design: dose 2.1 mg/kg, route intravenous; conditions: in vivo, read-out: Vdss
Rattus norvegicus [37] = test: Reduction of mean arterial blood pressure in spontaneous hypertensive rat at 1 mg/kg, po; assay type: functional, organism-based; design: dose 1 mg/kg
[38] = Plasma concentration in spontaneously hypertensive rat at 3 mg/kg, po after 2 hrs; assay type: ADME, organism-based; design: dose 3 mg/kg, route oral
[39] = Volume of distribution in Sprague-Dawley rat at 1.6 mg/kg, iv; assay type: ADME, organism-based; design: dose 1.6 mg/kg, route intravenous; conditions: in vivo, read-out: Vdss
[40] = Plasma concentration in spontaneously hypertensive rat at 3 mg/kg, po after 1 hr; assay type: ADME, organism-based; design: dose 3 mg/kg, route oral
[41] = Plasma concentration in spontaneously hypertensive rat at 3 mg/kg, po after 8 hrs; assay type: ADME, organism-based; design: dose 3 mg/kg, route oral
[42] = Clearance in Sprague-Dawley rat at 1.6 mg/kg, iv; assay type: ADME, organism-based; design: dose 1.6 mg/kg, route intravenous; conditions: in vivo
[43] = Plasma concentration in spontaneously hypertensive rat at 3 mg/kg, po after 0.5 hrs; assay type: ADME, organism-based; design: dose 3 mg/kg, route oral
[44] = Plasma concentration in spontaneously hypertensive rat at 3 mg/kg, po after 4 hrs; assay type: ADME, organism-based; design: dose 3 mg/kg, route oral
Rattus norvegicus [45] = test: Reduction of mean arterial blood pressure in spontaneous hypertensive rat at 0.3 mg/kg, po; assay type: functional, organism-based; design: dose 0.3 mg/kg
[46] = Half life in Sprague-Dawley rat at 1.6 mg/kg, iv; assay type: ADME, organism-based; design: dose 1.6 mg/kg, route intravenous; conditions: in vivo
[47] = Cmax in Sprague-Dawley rat at 1.6 mg/kg, iv; assay type: ADME, organism-based; design: dose 1.6 mg/kg, route intravenous; conditions: in vivo
Rattus norvegicus [48] = test: Reduction of mean arterial blood pressure in spontaneous hypertensive rat at 3 mg/kg, po; assay type: functional, organism-based; design: dose 3 mg/kg
[49] = Cmax in Sprague-Dawley rat at 1.1 mg/kg, iv; assay type: ADME, organism-based; design: dose 1.1 mg/kg, route intravenous; conditions: in vivo
[50] = Clearance in Sprague-Dawley rat at 1.1 mg/kg, iv; assay type: ADME, organism-based; design: dose 1.1 mg/kg, route intravenous; conditions: in vivo
[51] = Volume of distribution in Sprague-Dawley rat at 1.1 mg/kg, iv; assay type: ADME, organism-based; design: dose 1.1 mg/kg, route intravenous; conditions: in vivo, read-out: Vdss
[52] = Half life in Sprague-Dawley rat at 1.1 mg/kg, iv; assay type: ADME, organism-based; design: dose 1.1 mg/kg, route intravenous; conditions: in vivo

Chain of Rho-associated protein kinase 1 (Q13464 whole entry): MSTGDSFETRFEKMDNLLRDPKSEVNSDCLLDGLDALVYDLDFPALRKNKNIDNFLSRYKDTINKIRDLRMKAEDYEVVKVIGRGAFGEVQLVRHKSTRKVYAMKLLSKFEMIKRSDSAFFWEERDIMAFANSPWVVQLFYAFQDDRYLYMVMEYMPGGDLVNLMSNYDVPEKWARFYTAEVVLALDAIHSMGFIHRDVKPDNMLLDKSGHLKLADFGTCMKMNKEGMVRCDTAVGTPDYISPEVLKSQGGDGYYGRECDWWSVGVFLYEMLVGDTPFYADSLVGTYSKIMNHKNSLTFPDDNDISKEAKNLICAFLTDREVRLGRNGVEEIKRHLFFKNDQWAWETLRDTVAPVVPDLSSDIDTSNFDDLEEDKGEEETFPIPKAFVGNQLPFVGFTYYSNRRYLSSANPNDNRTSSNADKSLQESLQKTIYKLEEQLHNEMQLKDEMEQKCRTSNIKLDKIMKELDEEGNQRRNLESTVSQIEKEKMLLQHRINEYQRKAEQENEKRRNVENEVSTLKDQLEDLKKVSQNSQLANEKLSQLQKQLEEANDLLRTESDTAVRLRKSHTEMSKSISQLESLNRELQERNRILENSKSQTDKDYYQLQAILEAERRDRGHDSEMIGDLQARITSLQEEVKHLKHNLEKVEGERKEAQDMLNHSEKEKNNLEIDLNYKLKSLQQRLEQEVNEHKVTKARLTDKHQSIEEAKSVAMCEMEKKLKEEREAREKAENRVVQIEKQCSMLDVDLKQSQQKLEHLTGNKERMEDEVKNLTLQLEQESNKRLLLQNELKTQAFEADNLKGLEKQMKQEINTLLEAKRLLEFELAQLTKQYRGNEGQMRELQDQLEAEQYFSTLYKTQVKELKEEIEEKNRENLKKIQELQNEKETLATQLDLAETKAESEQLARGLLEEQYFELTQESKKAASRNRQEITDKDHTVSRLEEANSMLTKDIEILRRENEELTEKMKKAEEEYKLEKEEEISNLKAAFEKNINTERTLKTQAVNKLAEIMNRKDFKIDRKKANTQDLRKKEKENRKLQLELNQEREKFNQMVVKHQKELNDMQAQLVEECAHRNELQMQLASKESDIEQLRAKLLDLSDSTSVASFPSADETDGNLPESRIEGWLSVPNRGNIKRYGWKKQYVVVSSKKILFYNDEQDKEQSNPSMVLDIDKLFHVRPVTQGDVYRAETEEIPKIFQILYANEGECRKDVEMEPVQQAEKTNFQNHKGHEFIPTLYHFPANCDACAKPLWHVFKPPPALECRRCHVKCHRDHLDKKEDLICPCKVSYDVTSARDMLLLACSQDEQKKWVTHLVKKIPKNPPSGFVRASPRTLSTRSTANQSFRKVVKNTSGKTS

Compound | Selectivity ratio (Homo sapiens [1]) | Selectivity ratio (Homo sapiens [2]) | Selectivity ratio (Homo sapiens [3]) | Selectivity ratio (Homo sapiens [4]) | Selectivity ratio (Homo sapiens [5]) | IC50 [6] [nM] | IC50 (Aorta) [nM] | also measured
CCn1c(-c2nonc2N)nc2cnc(Oc3cccc(C(C)=O)c3)cc21 | 460 | > 1000 | 6.2 | 12 | 12 | 13 |  | 
CCn1c(-c2nonc2N)nc2cnc(Oc3ccc(NC(C)=O)cc3)cc21 | 110 | > 160 | 9.2 | 12 | 9.7 | 90 |  | 
CCn1c(-c2nonc2N)nc2cnc(Oc3cccc(S(C)(=O)=O)c3)cc21 |  | 150 | 0.7 | 2.7 | 3.9 | 33 |  | 
CCn1c(-c2nonc2N)nc2cnc(Oc3cccc(N)c3)cc21 | 320 | 300 | 13 | 8.9 | 9.4 | 18 |  | 
CCn1c(-c2nonc2N)nc2cnc(Oc3cccc(NC(=O)c4ccc(OCCN5CCOCC5)cc4)c3)cc21 [GSK-269962A] |  |  |  |  |  |  | 35 | Activity (Rattus norvegicus [37]): Active; concentration at 2 h [38]: 290 ng/mL; Vd [39]: 1.3 L/kg; concentration at 1 h [40]: 330 ng/mL; concentration at 8 h [41]: 88 ng/mL; Cmax [20]: 800 ng/mL; clearance [42]: 7.6 mL/min/kg; concentration at 0.5 h [43]: 280 ng/mL; concentration at 4 h [44]: 150 ng/mL; bioavailability [21]: 78%; Activity (Rattus norvegicus [45]): Active; half-life [46]: 132 min; Cmax [47]: 1270 ng/mL; Activity (Rattus norvegicus [48]): Active
CCn1c(-c2nonc2N)nc2cnc(Oc3ccccc3)cc21 | > 130 | > 500 | 18 | 10 | 1.5 | 30 |  | 
CCn1c(-c2nonc2N)nc2cnccc21 | 22 | 53 | 3.1 | 0.63 | 0.18 | 19 |  | 

Now from value to molecule, other results behind:

Selectivity ratio (Homo sapiens [1]) | Selectivity ratio (Homo sapiens [2]) | Selectivity ratio (Homo sapiens [3]) | Selectivity ratio (Homo sapiens [4]) | Selectivity ratio (Homo sapiens [5]) | IC50 [6] [nM] | IC50 (Aorta) [nM] | Compound | also measured
 |  | 7 | 45 | 13 | 2 | 106 | CCn1c(-c2nonc2N)nc2cnc(Oc3cccc(NC(=O)c4ccc(N(C)C)cc4)c3)cc21 [GSK-248233A] | bioavailability [7]: 11%; clearance [8]: 0.14 mL/min/kg; Cmax [9]: 3620 ng/mL; Cmax [10]: 18600 ng/mL; half-life [11]: 516 min; Vd [12]: 0.09 L/kg
 |  | > 3 | > 80 | > 52 | ≤ 1 | 74 | CCn1c(-c2nonc2N)nc2cnc(Oc3cccc(NC(=O)c4ccc(CN(C)C)cc4)c3)cc21 | Vd [13]: 2.4 L/kg; Cmax [14]: 160 ng/mL; bioavailability [15]: 47%; clearance [16]: 30 mL/min/kg; Cmax [17]: 630 ng/mL; half-life [18]: 114 min
 |  | > 17 | > 70 | > 70 | ≤ 1 | 107 | CCn1c(-c2nonc2N)nc2cnc(Oc3cccc(NC(=O)c4ccc(CN)cc4)c3)cc21 | Vd [13]: 0.11 L/kg; Cmax [14]: 255 ng/mL; bioavailability [15]: 4%; clearance [16]: 2.3 mL/min/kg; Cmax [17]: 9900 ng/mL; half-life [18]: 84 min
 |  | > 3 | > 80 | > 65 | ≤ 1 | 79 | CCn1c(-c2nonc2N)nc2cnc(Oc3cccc(NC(=O)c4ccc(OCCN(C)C)cc4)c3)cc21 | Vd [19]: 8.9 L/kg; Cmax [20]: 410 ng/mL; bioavailability [21]: 40%; Cmax [22]: 410 ng/mL; clearance [23]: 121 mL/min/kg; half-life [24]: 126 min
 |  | 3 | 3.8 | 2.2 | 4 | 106 | CCn1c(-c2nonc2N)nc2cnc(Oc3cccc(NC(=O)c4ccccc4)c3)cc21 | clearance [25]: 0.18 mL/min/kg; Cmax [26]: 11700 ng/mL; half-life [27]: 576 min; Cmax [28]: 6940 ng/mL; Vd [29]: 0.16 L/kg; bioavailability [30]: 35%
 |  | > 10 | > 60 | > 26 | ≤ 1 | 59 | CCn1c(-c2nonc2N)nc2cnc(Oc3cccc(NC(=O)c4ccc(N5CCOCC5)cc4)c3)cc21 | Cmax [31]: 1500 ng/mL; clearance [32]: 8.6 mL/min/kg; Cmax [33]: 890 ng/mL; half-life [34]: 54 min; bioavailability [35]: 23%; Vd [36]: 0.57 L/kg
> 1000 | > 1000 | 14 | 18 | 2.8 | 1.8 |  | CCn1c(-c2nonc2N)nc2cnc(Oc3cccc(NC(C)=O)c3)cc21 | 
 |  | > 10 | > 120 | > 35 | ≤ 1 | 102 | CCn1c(-c2nonc2N)nc2cnc(Oc3cccc(NC(=O)c4ccc(CN5CCOCC5)cc4)c3)cc21 | Cmax [49]: 1100 ng/mL; clearance [50]: 10.7 mL/min/kg; Cmax [14]: 684 ng/mL; bioavailability [15]: 64%; Vd [51]: 1.1 L/kg; half-life [52]: 84 min
55 | 250 | 15 | 18 | 2.3 | 4.4 |  | CCn1c(-c2nonc2N)nc2cnc(OC)cc21 | 
